One data set deals with MOLM13 cells (FLT3-ITD). As to the kind of experiment: Growth inhibition IC50 in FLT3-ITD AML cell line MOLM13. Particulars: Homo sapiens. Format: cell-based.
The subject of data set [1] is U118MG cells (FIG-ROS1 gene fusion). The data set is described as follows: Growth inhibition IC50 in ROS1 mutant glioblastoma cell line U118MG (72 hours). Type of data set: cell-based. As to conditions: Homo sapiens, U-118-MG, read-out: Half Inhibitory Concentration (IC50) Mean.
Data set [2] deals with SW48 cell line (EGFR G719S). The data set is described as follows: Growth inhibition IC50 in EGFR G719S colorectal cancer cell line SW48. Format: cell-based. As to conditions: Homo sapiens, CTG, n = 2, read-out: Half Inhibitory Concentration (IC50) Mean.
Data set [3] deals with T1, ALK protein in H3122 (EML4-ALK) cells (Homo sapiens, UniProt Q9UM73).
T1 construct: EML4 (Echinoderm microtubule-associated protein-like 4, Q9HC35) fusion partner, variant 1; host or cells: NCI-H3122 lung adenocarcinoma cells; the other entry of the earlier key: EML4 (Q9HC35, Echinoderm microtubule-associated protein-like 4)
As to the kind of experiment: Western blot of ALK protein level (degradation, DC50), ALK phosphorylation and downstream signaling in H3122 cells. As to conditions: ALK protein degradation in H3122 cells. Type of data set: cell-based.

In the next data set the target is T2, Ba/F3 (EML4-ALK/C1156Y) (Homo sapiens, UniProt Q9UM73, C1156Y, cells depend on it).
T2 construct: Q9HC35 (Echinoderm microtubule-associated protein-like 4)
As to the kind of experiment: Growth inhibition IC50 in Ba/F3 cells expressing EML4-ALK C1156Y. Type of data set: cell-based.

The test system of the next data set is SR (NPM-ALK) cells. The data set is described as follows: Growth inhibition IC50 in ALCL SR cells (CCK8/WST, 72 hours). Format: cell-based. As to conditions: 72 h, SR cells, WST; Brigatinib-based PROTAD molecules (Table 3).
The next data set concerns the target T3, Ba/F3 (EML4-ALK/WT) (Homo sapiens, UniProt Q9UM73).
T3 construct: Q9HC35 (Echinoderm microtubule-associated protein-like 4)
The data set is described as follows: Growth inhibition IC50 in Ba/F3 cells expressing EML4-ALK wild type. Format: cell-based.

Data set [4] can be described thus: Pharmacokinetics (PK) study in SD rat (IV, IP, PO; LC-MS/MS). Type of data set: in vivo. Particulars: Sprague-Dawley, serum; for clearance: read-out: clearance rate, mean value. As for the experimental part: SD rat were used to study the PK of ALK PROTAD compounds. ALK PROTAD compounds SIAIS164008, SIAIS164018, SIAIS164023 and SIAIS151118 were administrated into SD rat via three different routes: IV (Intravenous Injection), IP (Intraperitoneal Injection) and PO ([…]). Blood samples at different sampling time points up to 24 hours post dosing were collected from each animal and analyzed with LC-MS/MS to calculate the PK for each chemical.

In data set [5] the test system is NCI-H2228 (EML4-ALK, V3) cells. As to the kind of experiment: Growth inhibition IC50 in lung adenocarcinoma H2228 cells (WST). Format: cell-based. As to conditions: Homo sapiens, WST (Table 3). From the text: Experiments were repeated at least three times.
Besides above, we also tested the dosage-dependent effects on the growth inhibition in H2228 cells. […] (Table 3).

The next data set has as its target T4, Ba/F3 (EML4-ALK/L1196M) (Homo sapiens, UniProt Q9UM73, L1196M, cells depend on it).
T4 construct: Q9HC35 (Echinoderm microtubule-associated protein-like 4)
As to the kind of experiment: Growth inhibition IC50 in Ba/F3 cells expressing EML4-ALK L1196M. Type of data set: cell-based.

For data set [6], the target named is T5, ALK protein in SR (NPM-ALK) cells (Homo sapiens, UniProt Q9UM73).
T5 construct: NPM (nucleophosmin, NPM1, P06748) fusion partner; host or cells: SR (ALCL) cells; the other entry of the earlier key: NPM1 (P06748, Nucleophosmin)
As to the kind of experiment: Western blot of ALK protein level (degradation, DC50), ALK phosphorylation and downstream signaling in SR cells. Type of data set: cell-based. As to conditions: for DC50: ALK protein degradation in SR cells.

Data set [7] relates to PC9Brc1 (EGFR, exon 19 del+T790M) cells. The data set is described as follows: Growth inhibition IC50 in EGFR mutant lung cancer PC9Brc1 cells. Format: cell-based. Particulars: CTB, n ≥ 3, read-out: Half Inhibitory Concentration (IC50) Mean.
Data set [8] has as its system PC9 (EGFR, exon 19 del) cells. The data set is described as follows: Growth inhibition IC50 in EGFR mutant lung adenocarcinoma PC9 cells. Format: cell-based. As to conditions: Homo sapiens, PC-9; PC9 cells, CTB, n ≥ 3; read-out: Half Inhibitory Concentration (IC50) Mean.
The mark [9] stands for this setting: MOLM-13, MOLM13 cells, n = 2, reagent CTG, read-out: Half Inhibitory Concentration (IC50) Mean.
[10] abbreviates: U118MG cells, 72 hours, n = 2, reagent CTG.
The mark [11] stands for this setting: IP, 2 mg/kg, read-out: serum half-life (converted).
[12] abbreviates: IP, 2 mg/kg, read-out: time to maximal serum peak level (Tmax).
The mark [13] stands for this setting: IV, single dose 2 mg/kg, read-out: serum clearance half-life (converted).
Where [14] appears, read: PO, 10 mg/kg, read-out: serum half-life (converted).

Where two headings read alike, the source gives them in different places.

On to `CCc1cc2c(cc1N1CCC(N3CCOCC3)CC1)C(C)(C)c1[nH]c3cc(C#N)ccc3c1C2=O` [Alectinib, reference compound], for which the IC50 with MOLM13 cells (FLT3-ITD) (MOLM-13, read-out: Half Inhibitory Concentration (IC50) Mean) is 255 nM; in data set [1] (72 h) it was 1480 nM; in [2], 800 nM.

Turning to `COc1cc(N2CCC(NC(=O)CCCNc3cccc4c3C(=O)N(C3CCC(=O)NC3=O)C4=O)CC2)ccc1Nc1ncc(Cl)c(Nc2ccccc2P(C)(C)=O)n1` (stereo not drawn) [SIAIS151118, N-(1-(4-((5-chloro-4-((2-(dimethylphosphoryl)phenyl)amino)pyrimidin-2-yl)amino)-3-methoxyphenyl)piperidin-4-yl)-4-((2-(2,6-dioxopiperidin-3-yl)-1,3-dioxoisoindolin-4-yl)amino)butanamide], the DC50 in data set [3] was in the range of 1 to 50 nM; in data set [6] it was 1 to 10 nM. The GI50 on Ba/F3 (EML4-ALK/C1156Y) amounted to 129 nM; at Ba/F3 (EML4-ALK/WT), 92 nM; at Ba/F3 (EML4-ALK/L1196M), 146 nM. The IC50 was determined as 101 nM in the data set with MOLM13 cells (FLT3-ITD) (setting [9]); 101 nM with MOLM13 cells (FLT3-ITD) (MOLM-13, MOLM13 cells, read-out: IC50); 0.9 ± 0.2 nM in the data set with SR (NPM-ALK) cells; 4260 nM in data set [1] (setting [10]); 346 nM in [5]; 1920 nM in [2]. Besides, the bioavailability in [4] (IP, 2 mg/kg) worked out at 225%; in data set [4] (PO, 10 mg/kg), 36%. Moreover, the half-life in data set [4] (setting [11]) was 3.27 h; in data set [4] (setting [13]) it was around 4.73 h; in data set [4] (setting [14]), 4.66 h. For the same compound, the Tmax is around 1.67 h in data set [4] (setting [12]) and 3.33 h in data set [4] (PO, 10 mg/kg, read-out: Tmax). In addition, in data set [4] (IV, single dose 2 mg/kg), the clearance was around 6.35 mL/min/kg.

As for `COc1cc(N2CCC(N3CCN(C(=O)CCCCNc4cccc5c4C(=O)N(C4CCC(=O)NC4=O)C5=O)CC3)CC2)ccc1Nc1ncc(Cl)c(Nc2ccccc2P(C)(C)=O)n1` (stereo not drawn) [SIAIS164021, 4-((5-(4-(1-(4-((5-chloro-4-((2-(dimethylphosphoryl)phenyl)amino)pyrimidin-2-yl)amino)-3-methoxyphenyl)piperidin-4-yl)piperazin-1-yl)-5-oxopentyl)amino)-2-(2,6-dioxopiperidin-3-yl)isoindoline-1,3-dione], the values for the DC50 in [3] and in data set [6] were 1 to 10 nM and 0.1 to 0.5 nM, respectively. For the same compound, the IC50 is 7.4 ± 5 nM in the data set on SR (NPM-ALK) cells, 2440 nM in data set [7] and 434 nM in data set [8]. In addition, in data set [6] (SR cells, western blot), the “concentration at which ALK proteins were degraded” value is given as 1 nM.

On to `COc1cc(N2CCC(N3CCN(C(=O)CCCCCNc4cccc5c4C(=O)N(C4CCC(=O)NC4=O)C5=O)CC3)CC2)ccc1Nc1ncc(Cl)c(Nc2ccccc2P(C)(C)=O)n1` (stereo not drawn) [SIAIS164022, 4-((6-(4-(1-(4-((5-chloro-4-((2-(dimethylphosphoryl)phenyl)amino)pyrimidin-2-yl)amino)-3-methoxyphenyl)piperidin-4-yl)piperazin-1-yl)-6-oxohexyl)amino)-2-(2,6-dioxopiperidin-3-yl)isoindoline-1,3-dione], for which the DC50 in data set [3] and in [6] was 1 to 10 nM in each case. In addition, the IC50 was 3.3 ± 2.2 nM in the data set with SR (NPM-ALK) cells, 696 nM in data set [7] and 233 nM in [8].

For `COc1cc(N2CCC(N3CCN(C(=O)CCCCCCNc4cccc5c4C(=O)N(C4CCC(=O)NC4=O)C5=O)CC3)CC2)ccc1Nc1ncc(Cl)c(Nc2ccccc2P(C)(C)=O)n1` (stereo not drawn) [SIAIS164023, 4-((7-(4-(1-(4-((5-chloro-4-((2-(dimethylphosphoryl)phenyl)amino)pyrimidin-2-yl)amino)-3-methoxyphenyl)piperidin-4-yl)piperazin-1-yl)-7-oxoheptyl)amino)-2-(2,6-dioxopiperidin-3-yl)isoindoline-1,3-dione], the DC50 in data set [3] lay in the range of 1 to 10 nM; in data set [6], 0.5 to 10 nM. Also, the GI50 was 47.5 nM at Ba/F3 (EML4-ALK/C1156Y), 33.6 nM at Ba/F3 (EML4-ALK/WT) and 75.8 nM at Ba/F3 (EML4-ALK/L1196M). For the same compound, the IC50 in the data set on SR (NPM-ALK) cells came out at 4.8 ± 2.7 nM; in data set [5] it was 15.5 nM; in [7] it was 870 nM; in data set [8], 379 nM. The bioavailability was determined as 122% in data set [4] (IP, 2 mg/kg) and 34.4% in data set [4] (PO, 10 mg/kg). For the same compound, the half-life was 1.62 h in data set [4] (setting [11]), around 7.71 h in data set [4] (setting [13]) and 2.13 h in data set [4] (setting [14]). For the same compound, the Tmax was around 2 h in data set [4] (setting [12]) and 3.33 h in [4] (PO, 10 mg/kg, read-out: Tmax). Further, the clearance in data set [4] (IV, single dose 2 mg/kg) is around 88.2 mL/min/kg.

Take `COc1cc(N2CCC(NC(=O)CCCCCCC(=O)N[C@H](C(=O)N3C[C@H](O)C[C@H]3C(=O)NCc3ccc(-c4scnc4C)cc3)C(C)(C)C)CC2)ccc1Nc1ncc(Cl)c(Nc2ccccc2P(C)(C)=O)n1` [SIAIS164147, N1-(1-(4-((5-chloro-4-((2-(dimethylphosphoryl)phenyl)amino)pyrimidin-2-yl)amino)-3-methoxyphenyl)piperidin-4-yl)-N8-((S)-1-((2S,4R)-4-hydroxy-2-((4-(4-methylthiazol-5-yl)benzyl)carbamoyl)pyrrolidin-1-yl)-3,3-dimethyl-1-oxobutan-2-yl)octanediamide]: the values for the DC50 in [3] and in data set [6] were 0.02 to 1 nM and 1 to 10 nM, respectively. The IC50 in the data set on SR (NPM-ALK) cells is 2 ± 1.2 nM; in data set [7] it was 1280 nM; in data set [8], 321 nM.

For `COc1cc(N2CCC(NC(=O)CCCCCCCC(=O)N[C@H](C(=O)N3C[C@H](O)C[C@H]3C(=O)NCc3ccc(-c4scnc4C)cc3)C(C)(C)C)CC2)ccc1Nc1ncc(Cl)c(Nc2ccccc2P(C)(C)=O)n1` [SIAIS164148], the DC50 in data set [3] lay within 1 to 50 nM; in data set [6], 1 to 10 nM. The IC50 in the data set on SR (NPM-ALK) cells was 1.5 ± 0.8 nM; in data set [7] it was 1340 nM; in data set [8] it was 153 nM.

`COc1cc(N2CCC(NC(=O)CCCCCCCCC(=O)N[C@H](C(=O)N3C[C@H](O)C[C@H]3C(=O)NCc3ccc(-c4scnc4C)cc3)C(C)(C)C)CC2)ccc1Nc1ncc(Cl)c(Nc2ccccc2P(C)(C)=O)n1` [SIAIS164149, N1-(1-(4-((5-chloro-4-((2-(dimethylphosphoryl)phenyl)amino)pyrimidin-2-yl)amino)-3-methoxyphenyl)piperidin-4-yl)-N10-((S)-1-((2S,4R)-4-hydroxy-2-((4-(4-methylthiazol-5-yl)benzyl)carbamoyl)pyrrolidin-1-yl)-3,3-dimethyl-1-oxobutan-2-yl)decanediamide]: the “DC50 (nM)) in H3122” value in data set [3] was in the range of 0.02 to 20 nM. Besides, the IC50 with SR (NPM-ALK) cells is 2.3 ± 2 nM; in data set [7] it was 988 nM; in data set [8] it was 187 nM. Moreover, the DC50 in data set [6] is 1 to 10 nM.

`COc1cc(N2CCC(N3CCN(C(=O)CNc4cccc5c4CN(C4CCC(=O)NC4=O)C5=O)CC3)CC2)ccc1Nc1ncc(Cl)c(Nc2ccccc2P(C)(C)=O)n1` (stereo not drawn) [SIAIS219073, 3-(4-((2-(4-(1-(4-((5-chloro-4-((2-(dimethylphosphoryl)phenyl)amino)pyrimidin-2-yl)amino)-3-methoxyphenyl)piperidin-4-yl)piperazin-1-yl)-2-oxoethyl)amino)-1-oxoisoindolin-2-yl)piperidine-2,6-dione]: the IC50 in the data set with MOLM13 cells (FLT3-ITD) (setting [9]) was 373 nM; with SR (NPM-ALK) cells, 1.8 ± 1 nM; in [1] (setting [10]), above 20000 nM; in data set [2], above 20000 nM.

The values above are taken from patent publication US11771709B2, “ALK protein degradation agent and anti-tumor application thereof” (ShanghaiTech University, priority 2017, dated 2023).
